Test results published in ChEMBL document CHEMBL2203074 (Bioorg Med Chem Lett, 2012).
Active and inactive are the calls of the source. The rule behind the calls is not given here.

How the values were obtained:
[1] = Antioxidant activity assessed as trolox equivalent of AAPH-induced radical scavenging activity incubated for 10 mins prior to APPH challenge measured every minute for 120 mins by ORAC assay; format: functional
[2] = Inhibition of amyloid beta (1-42) aggregation at 20 uM after 48 hrs by thioflavin T fluorescence method relative to control
[3] = system: SH-SY5Y; assay: Cytotoxicity against human SH-SY5Y cells assessed as cell viability at 12.5 to 25 uM after 48 hrs by MTT assay; format: cell-based
[4] = Inhibition of amyloid beta (1-42) aggregation at 20 uM after 24 hrs by transmission electron microscopy
[5] = system: SH-SY5Y; assay: Neuroprotective activity in human SH-SY5Y cells assessed as decrease in tertiary butylhydroperoxide-induced radical formation incubated for 24 hrs prior to tertiary butylhydroperoxide challenge measured after 30 mins by DCFH-DA staining-based fluorescence assay; format: functional, cell-based
[6] = system: SH-SY5Y; assay: Cytotoxicity against human SH-SY5Y cells assessed as cell viability at 60 uM after 48 hrs by MTT assay; format: cell-based
[7] = system: SH-SY5Y; assay: Neuroprotective activity in human SH-SY5Y cells assessed as decrease in tertiary butylhydroperoxide-induced radical formation at 10 uM incubated for 24 hrs prior to tertiary butylhydroperoxide challenge measured after 30 mins by DCFH-DA staining-based fluorescence assay; format: functional; parameters: scale not given: the % may be the effect or the level left
[8] = system: SH-SY5Y; assay: Cytotoxicity against human SH-SY5Y cells assessed as cell viability at 25 uM after 48 hrs by MTT assay; format: cell-based

| SMILES | Activity [1] | inhibition [2] | also measured |
| --- | --- | --- | --- |
| Oc1cc(O)cc(/C=C/c2ccncc2)c1 | 1.71 equiv | 13.6% | – |
| CN(C)c1ccc(/C=C/c2cc(O)cc(O)c2)cc1 | 4.7 equiv | 65.2% | Activity [3]: Non-toxic |
| CN(C)c1cccc(/C=C/c2cc(O)cc(O)c2)c1 | 3.93 equiv | 61.5% | – |
| Oc1ccc(/C=C/c2cc(O)cc(O)c2)cc1 [RESVERATROL] | – | 69.7% | inhibition [4]: Active; Activity [5]: Dose-dependent effect; Activity [6]: Toxic |
| CCCNc1ccc(/C=C/c2cc(O)cc(O)c2)cc1 | 4.33 equiv | 66.7% | – |
| CN(C)c1ccc(CCc2cc(O)cc(O)c2)cc1 | 5.21 equiv | 48.5% | – |
| CC(C)(C)c1ccc(/C=C/c2cc(O)cc(O)c2)cc1 | 1.28 equiv | 43.6% | – |
| CCCN(CCC)c1ccc(/C=C/c2cc(O)cc(O)c2)cc1 | 2.37 equiv | 69% | – |
| CN(C)c1ccccc1/C=C/c1cc(O)cc(O)c1 | 2.05 equiv | 59.4% | – |
| CNc1ccc(/C=C/c2cc(O)cc(O)c2)cc1 | 5.54 equiv | 63.7% | Activity [5]: Dose-dependent effect; Activity [3]: Non-toxic |
| CCN(CC)c1ccc(/C=C/c2cc(O)cc(O)c2)cc1 | 3.31 equiv | 64.8% | – |
| CC(C)Nc1ccc(/C=C/c2cc(O)cc(O)c2)cc1 | 4.12 equiv | 71.7% | inhibition [4]: Active; Activity [7]: 37%; Activity [5]: Dose-dependent effect; Activity [3]: Non-toxic |
| Oc1cc(O)cc(/C=C/c2ccc(NC3CCCC3)cc2)c1 | 3.37 equiv | 68.7% | – |
| CCNc1ccc(/C=C/c2cc(O)cc(O)c2)cc1 | 5.19 equiv | 68.6% | Activity [8]: Toxic; Activity [5]: Dose-dependent effect |
| Oc1cc(O)cc(/C=C/c2ccc(Br)cc2)c1 | 2.33 equiv | 25.2% | – |
| COc1cc(/C=C/c2ccc(N(C)C)cc2)cc(OC)c1 | 3.46 equiv | 7.02% | – |
| Oc1cc(O)cc(/C=C/c2ccc(NC3CCCCC3)cc2)c1 | 2.25 equiv | 65.5% | – |
